Experimental data reported in publication PMC3839997, “Identification of Glucose Transporters in Aspergillus nidulans” (PLoS ONE, 2013).

What was measured:
HxtC [1] = target: T1, HxtC (Aspergillus nidulans, UniProt C8VDD8); assay: competition of […]glucose uptake in S. cerevisiae EBY.VW4000 expressing the transporter; assay type: cell-based; settings: tenfold excess of unlabelled sugar over [14C]glucose
T1 construct: gene ANIA_10891; full-length ORF from cDNA, untagged (with stop codon), expressed from pRH195 in S. cerevisiae EBY.VW4000; strain A4 given for the GFP construct
T1 sequence (C8VDD8 entry or part of it): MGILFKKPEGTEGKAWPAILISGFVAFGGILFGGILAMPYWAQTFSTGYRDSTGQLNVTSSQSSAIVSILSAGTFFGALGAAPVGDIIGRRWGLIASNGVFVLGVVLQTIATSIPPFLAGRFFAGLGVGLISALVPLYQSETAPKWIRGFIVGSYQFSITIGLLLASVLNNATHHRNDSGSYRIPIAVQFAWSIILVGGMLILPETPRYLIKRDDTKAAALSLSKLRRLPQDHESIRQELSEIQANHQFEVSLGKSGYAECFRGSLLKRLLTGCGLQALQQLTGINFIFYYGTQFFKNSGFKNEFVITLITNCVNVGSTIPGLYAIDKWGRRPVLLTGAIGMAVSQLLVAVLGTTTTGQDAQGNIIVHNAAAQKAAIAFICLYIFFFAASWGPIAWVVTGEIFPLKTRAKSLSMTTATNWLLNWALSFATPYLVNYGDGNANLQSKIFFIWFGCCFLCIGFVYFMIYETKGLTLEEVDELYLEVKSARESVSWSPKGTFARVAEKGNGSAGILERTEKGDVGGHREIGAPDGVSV

HxtC [2] = target: T1, HxtC; assay: […]glucose uptake in S. cerevisiae EBY.VW4000 expressing the transporter; assay type: cell-based; settings: labelled compound; 30 °C; proton symport

SMILES | % inhibition (HxtC [1]) | [14C]glucose uptake in S. cerevisiae EBY.VW4000 expressing the transporter (HxtC [2])
OCC1(O)OC[C@@H](O)[C@@H](O)[C@@H]1O (some centres unmarked) [fructose] | unlabeled maltose, galactose, fructose and mannose were also able to inhibit to different levels | –
OC[C@H]1OC(O)[C@H](O)[C@@H](O)[C@H]1O (some centres unmarked) [galactose] | unlabeled maltose, galactose, fructose and mannose were also able to inhibit to different levels | –
OC[C@H]1OC(O)[C@H](O)[C@@H](O)[C@@H]1O (some centres unmarked) [glucose] | – | these data suggested that HxtB, HxtC, and HxtE mediated glucose transport via active proton symport
OC[C@H]1O[C@H](O[C@H]2[C@H](O)[C@@H](O)C(O)O[C@@H]2CO)[C@H](O)[C@@H](O)[C@@H]1O (some centres unmarked) [maltose] | unlabeled maltose, galactose, fructose and mannose were also able to inhibit to different levels | –
OC[C@H]1OC(O)[C@@H](O)[C@@H](O)[C@@H]1O (some centres unmarked) [mannose] | unlabeled maltose, galactose, fructose and mannose were also able to inhibit to different levels | –
